In US6875769B2, “Substituted6,6-hetero-bicyclicderivatives” (Pfizer Inc., priority 1997, dated 2005):

**Q.** For `CCC(CC)Oc1cc(C)nc2c1c(Cl)nc(=O)n2-c1c(C)cc(C)cc1C` [Example 17, 4-Chloro-5-(1-ethyl-propoxy)-7-methyl-1-(2,4,6-trimethyl-phenyl)-1H-pyrido[2,3-d]pyrimidin-2-one], which melting point is on record?
**A.** 125 to 127 °C

**Q.** Which melting point does the source give for `CCC(CC)Oc1cc(C)nc2c1c(=O)[nH]c(=O)n2-c1c(C)cc(C)cc1C` [Example 18, 5-(1-Ethyl-propoxy)-7-methyl-1-(2,4,6-trimethyl-phenyl)-1H-pyrido[2,3-d]pyrimidine-2,4-dione] here?
**A.** 105 to 107 °C

**Q.** Which melting point does the source give for `CCC(CC)Nc1cc(C)nc2c1CCC(=O)N2c1c(C)cc(C)cc1C` [Example 12, 5-(1-Ethyl-propylamino)-7-methyl-1-(2,4,6-trimethyl-phenyl)-3,4-dihydro-1H-[1,8]naphthyridin-2-one] here?
**A.** 124 to 126 °C
